The values that follow come from US11312724B2 (ASCENTAGE PHARMA (SUZHOU) CO., LTD., priority 2021, dated 2022).

In data set [1] the test system is NCI-H358 cell. Briefly: Cell proliferation assay (Celltiter-Glo), NCI-H358. The class given is cell-based. The conditions noted are these: Homo sapiens, NCI-H358, 72 h, 3 days. The method, then:
(§1) Cell Proliferation Assay:
(§2) NCI-H358 cell and MIA PaCa-2 cell was cultured in RPMI-1640 supplemented with 10% FBS in humidified incubator at 37° C., 5% CO2. To asses the effect of Compounds of the Disclosure on cell proliferation, exponentially growing cells (5000 cells/well) were plated onto 96-well plates. After cell seeding, a representative Compounds of the Disclosure were added to the cell media (in concentrations ranging from 0 to 10 μM, 3/dilution series). After 3 days, 30 μL Celltiter-Glo reagent was added, and the luminescent signal was determined according to supplier's instruction. The dose response curves and IC50 values were generated using Prism.

The subject of data set [2] is MIA PaCa-2 cell. As to the kind of experiment: Cell proliferation assay (Celltiter-Glo), MIA PaCa-2. Type of data set: cell-based. As to conditions: Homo sapiens, MIA PaCa-2, 72 h, 3 days. The method, then: as §1, §2
Data set [3] is described as follows: Mouse PK studies, single i.v. and p.o. dose. The class given is in vivo, CD1 mice. The conditions noted are these: male, CD1, mouse, plasma; for half-life: terminal half-life.

Take `C=CC(=O)N1CCN(c2nc(OCC34CCCN3CCC4)nc3c2CC[C@@]2(CCc4c(Cl)cccc42)C3)C[C@@H]1CC#N` [Cpd. No. 44, 2-((S)-1-acryloyl-4-((R)-4-chloro-2′-((tetrahydro-1H-pyrrolizin-7a(5H)-yl)methoxy)-2,3,5′,8′-tetrahydro-6′H-spiro[indene-1,7′-quinazolin]-4′-yl)piperazin-2-yl)acetonitrile]: the IC50 was 4.6 nM in data set [1] and 1.5 nM in data set [2].
Taken in the same sequence, the figures for `C=C(F)C(=O)N1CCN(c2nc(OCC34CCCN3CCC4)nc3c2CC[C@@]2(CCc4c(Cl)cccc42)C3)C[C@@H]1CC#N` [Cpd. No. 45, 2-((S)-4-((R)-4-chloro-2′-((tetrahydro-1H-pyrrolizin-7a(5H)-yl)methoxy)-2,3,5′,8′-tetrahydro-6′H-spiro[indene-1,7′-quinazolin]-4′-yl)-1-(2-fluoroacryloyl)piperazin-2-yl)acetonitrile] were 7.6 nM and 2.8 nM.
Taken in the same sequence, the figures for `C=CC(=O)N1CCN(c2nc(OCC3CCC4(CC4)N3C)nc3c2CC[C@@]2(CCc4c(Cl)cccc42)C3)C[C@@H]1CC#N` (stereo partly drawn) [Cpd. No. 46, 2-((2S)-1-acryloyl-4-((1R)-4-chloro-2′-((4-methyl-4-azaspiro[2.4]heptan-5-yl)methoxy)-2,3,5′,8′-tetrahydro-6′H-spiro[indene-1,7′-quinazolin]-4′-yl)piperazin-2-yl)acetonitrile] were 25 nM and 15 nM.
Taken in the same sequence, the figures for `C=C(F)C(=O)N1CCN(c2nc(OCC34CCCN3CCC4)nc3c2CCC2(CCc4c(C(F)F)cccc42)C3)C[C@@H]1CC#N` (stereo partly drawn) [Cpd. No. 49, 2-((2S)-4-(4-(difluoromethyl)-2′-((tetrahydro-1H-pyrrolizin-7a(5H)-yl)methoxy)-2,3,5′,8′-tetrahydro-6′H-spiro[indene-1,7′-quinazolin]-4′-yl)-1-(2-fluoroacryloyl)piperazin-2-yl)acetonitrile] were 61 nM and 60 nM.
In the case of `C=C(F)C(=O)N1CCN(c2nc(OC[C@@]34CCCN3C[C@H](F)C4)nc3c2CC[C@@]2(CCc4c(Cl)cccc42)C3)C[C@@H]1CC#N` [Cpd. No. 50, 2-((S)-4-((R)-4-chloro-2′-(((2R,7aS)-2-fluorotetrahydro-1H-pyrrolizin-7a(5H)-yl)methoxy)-2,3,5′,8′-tetrahydro-6′H-spiro[indene-1,7′-quinazolin]-4′-yl)-1-(2-fluoroacryloyl)piperazin-2-yl)acetonitrile], the figures for the IC50 in data set [1] and in data set [2] were 1.2 nM and 2.9 nM, respectively.
Regarding `C=C(F)C(=O)N1CCN(c2nc(OCC34CCCN3CC(F)(F)C4)nc3c2CC[C@@]2(CCc4c(Cl)cccc42)C3)C[C@@H]1CC#N` (stereo partly drawn) [Cpd. No. 51, 2-((2S)-4-((1R)-4-chloro-2′-((2,2-difluorotetrahydro-1H-pyrrolizin-7a(5H)-yl)methoxy)-2,3,5′,8′-tetrahydro-6′H-spiro[indene-1,7′-quinazolin]-4′-yl)-1-(2-fluoroacryloyl)piperazin-2-yl)acetonitrile], the IC50 in data set [1] was 52 nM; in data set [2], 110 nM.
As for `C=C(F)C(=O)N1CCN(c2nc(OCC3CCC4CCCN43)nc3c2CC[C@@]2(CCc4c(Cl)cccc42)C3)C[C@@H]1CC#N` (stereo partly drawn) [Cpd. No. 52, 2-((2S)-4-((1R)-4-chloro-2′-((hexahydro-1H-pyrrolizin-3-yl)methoxy)-2,3,5′,8′-tetrahydro-6′H-spiro[indene-1,7′-quinazolin]-4′-yl)-1-(2-fluoroacryloyl)piperazin-2-yl)acetonitrile], the IC50 in data set [1] amounted to 260 nM; in data set [2], 340 nM.
Compound `C=CC(=O)N1CCN(c2nc(OC[C@@H]3CCCN3C)nc3c2CC[C@@]2(CCc4c(Cl)cccc42)C3)C[C@@H]1CC#N` [Cpd. No. 53, 2-((S)-1-acryloyl-4-((R)-4-chloro-2′-(((S)-1-methylpyrrolidin-2-yl)methoxy)-2,3,5′,8′-tetrahydro-6′H-spiro[indene-1,7′-quinazolin]-4′-yl)piperazin-2-yl)acetonitrile] displayed an IC50 in data set [1] of 2.5 nM. The IC50 in data set [2] came to 1.1 nM. In data set [3] (2 mg/kg, IV 2 mpk), this compound gave an AUC(0-inf) of 1200 ng·h/mL, an AUC(0-t) of 1200 ng·h/mL, an MRT inf of 0.824 h and a half-life of 1.45 h. The Vd in data set [3] (2 mg/kg, IV 2 mpk, read-out: Vss) came to 1.37 L/kg. In data set [3] (10 mg/kg, PO 10 mpk), this compound showed an AUC(0-inf) of 2900 ng·h/mL, an AUC(0-t) of 2650 ng·h/mL, a Cmax of 856 ng/mL and an MRT inf of 3.26 h. In data set [3] (10 mg/kg, PO 10 mpk), this compound showed a half-life of 2.39 h. The compound further registered a bioavailability in data set [3] (10 mg/kg, PO 10 mpk vs IV 2 mpk) of 48.2%.
With `C=C(F)C(=O)N1CCN(c2nc(OC[C@@H]3CCCN3C)nc3c2CC[C@@]2(CCc4c(Cl)cccc42)C3)C[C@@H]1CC#N` [Cpd. No. 54, 2-((S)-4-((R)-4-chloro-2′-(((S)-1-methylpyrrolidin-2-yl)methoxy)-2,3,5′,8′-tetrahydro-6′H-spiro[indene-1,7′-quinazolin]-4′-yl)-1-(2-fluoroacryloyl)piperazin-2-yl)acetonitrile], the IC50 was 28 nM in data set [1] and 16 nM in data set [2].
Taken in the same sequence, the figures for `C=CC(=O)N1CCN(c2nc(OC[C@@H]3CCCN3C)nc3c2CCC2(COCc4c(F)cccc42)C3)C[C@@H]1CC#N` (stereo partly shown) [compound 26] were 2.2 nM and 1.8 nM.
